IC50 data for 47 compounds are collected here from patent US20060079453A1, “Hla binding peptides and their uses” (priority 2002, published 2006).

pIC50: −log10 of the molar value. “And” between values parts separate entries of the source, which are not always exact repeats. Equal entries are not always repeated. Where two headings read alike, the source gives them in different places. No end group written: not given here.

The target of experiment [1] is H-2 Db (Mus musculus, UniProt P01899). The experiment is described as follows: biochemical. It is filed as binding, murine. Conditions: Db.
Chain of H-2 Db (P61769 21-119): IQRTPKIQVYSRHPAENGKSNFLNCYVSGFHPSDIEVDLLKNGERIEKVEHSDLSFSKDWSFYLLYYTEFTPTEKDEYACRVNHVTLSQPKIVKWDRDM
Chain of H-2 Db (P01899 25-362): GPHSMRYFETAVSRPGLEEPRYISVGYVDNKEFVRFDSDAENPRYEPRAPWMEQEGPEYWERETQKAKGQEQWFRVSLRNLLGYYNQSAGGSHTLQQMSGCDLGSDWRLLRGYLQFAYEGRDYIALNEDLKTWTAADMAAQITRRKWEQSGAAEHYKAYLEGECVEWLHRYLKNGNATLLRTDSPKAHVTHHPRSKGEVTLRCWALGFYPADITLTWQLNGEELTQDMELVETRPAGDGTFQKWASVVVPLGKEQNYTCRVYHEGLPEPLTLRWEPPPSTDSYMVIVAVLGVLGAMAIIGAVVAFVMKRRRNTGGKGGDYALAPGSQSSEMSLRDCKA
Experiment [2] deals with HLA-A*0101 (Homo sapiens, UniProt P04439, A114D/A174V/A182V/D101N/D185E/E176A/E190D/L180R/Q94H/R68K/S129P/T187R/V100A/V91M/W191G). Kind of experiment: biochemical. It is filed as binding. The settings on record: Binding affinity to A*0101 (expressed as an IC50).
Experiment [3] concerns the target HLA-A*2301 (Homo sapiens, UniProt P04439, D101N/D140Y/D185E/E176V/E190D/F33S/G103R/G107R/H175R/I119L/I121M/I306V/K168Q/K335N/L105A/L300P/N151K/N90K/P307H/Q86E/Q94H/R106L/R138H/R89G/T104I/T345S/V100E/W191G/Y123F). The experiment is described as follows: biochemical. Type of experiment: binding.
Experiment [4] deals with HLA-A*2902 (Homo sapiens, UniProt P04439, A270S/D101N/D185E/E176V/E277Q/E87Q/F33T/G231S/H175R/I121M/I218V/I322F/K168Q/L300P/L318F/M331R/P208A/P217A/Q86L/T323A/T345S/V100A/V358M). Kind of experiment: MHC molecular binding / Capture assay, IC50: A*2902.
Experiment [5] has as its target HLA-A*3002 (Homo sapiens, UniProt P04439, D101N/D140H/D185E/E176R/F33S/G80R/H175R/K168Q/Q94H/R138E/R41S/V100E). The experiment is described as follows: biochemical. Type of experiment: binding.
The target of experiment [6] is HLA-A*2402 (Homo sapiens, UniProt P04439, D101N/D140Y/D185E/E176V/E190D/F33S/G103R/G107R/I119L/I121M/I306V/K335N/L105A/L180Q/L300P/N151K/N90K/Q86E/Q94H/R106L/R138H/R89G/T104I/T345S/V100E/W191G/Y123F). Kind of experiment: MHC molecular binding / Capture assay, IC50: A*2402.
[7] abbreviates: Binding affinity to A*2902 (expressed as an IC50).
[8] abbreviates: Binding affinity to A*3002 (expressed as an IC50).

Compound AAAANAAAM had a pIC50 in experiment [1] of 7.64.
Regarding KQYLNLYPV, in experiment [1], the pIC50 was 8.47.
Turning to `CC[C@H](C)[C@H](NC(=O)[C@H](Cc1c[nH]cn1)NC(=O)[C@H](Cc1ccccc1)NC(=O)[C@@H](N)Cc1c[nH]c2ccccc12)C(=O)N[C@@H](CO)C(=O)N[C@@H](CS)C(=O)N[C@@H](CC(C)C)C(=O)N[C@H](C(=O)N[C@@H](Cc1ccccc1)C(=O)O)[C@@H](C)O`, the negative-log IC50 (pIC50) in experiment [2] was 4.07; in experiment [3], 7.96; in experiment [4], 7.02; in experiment [5], 4.12; in experiment [6], 6.69.
Turning to QTEQATSNY, the pIC50 was 7.85 in experiment [2], 3.92 in experiment [4] and 5.49 in experiment [5].
For YTDGPGIRY, the pIC50 in experiment [2] was 7.96; in experiment [4], 6.25; in experiment [5] it was 5.10.
On to `CC(C)C[C@H](NC(=O)CNC(=O)[C@@H](NC(=O)[C@H](CC(N)=O)NC(=O)[C@@H](NC(=O)[C@H](CC(C)C)NC(=O)[C@H](CCCCN)NC(=O)[C@H](CCC(=O)O)NC(=O)[C@H](CC(C)C)NC(=O)[C@@H](N)[C@@H](C)O)[C@@H](C)O)[C@@H](C)O)C(=O)N[C@@H](Cc1ccc(O)cc1)C(=O)O`, for which the pIC50 in experiment [2] is 7.11 and 7.64; in experiment [4], 6.00; in experiment [4] (setting [7]) it was 5.26; in experiment [5] it was 7.04.
As to `C[C@H](NC(=O)[C@H](CCC(N)=O)NC(=O)[C@@H](N)CCCNC(=N)N)C(=O)N[C@@H](CCCCN)C(=O)N[C@@H](CCC(N)=O)C(=O)N[C@@H](Cc1c[nH]cn1)C(=O)N[C@H](C(=O)N[C@@H](CS)C(=O)N[C@@H](Cc1ccc(O)cc1)C(=O)O)[C@@H](C)O`, the pIC50 in experiment [2] is less than 3.87; in experiment [4] (setting [7]) it was 3.81; in experiment [5] (setting [8]) it was 6.97.
As for STVKHHMY, the pIC50 in experiment [2] is 5.09; in experiment [4] it was 5.75; in experiment [5], 7.17.
On to LTEYVLDLY, for which the pIC50 is 8.22 and 8.10 in experiment [2]; 6.03 in experiment [4]; 7.09 in experiment [5].
`CC(C)C[C@H](NC(=O)[C@@H](NC(=O)[C@@H](N)CCCCN)[C@@H](C)O)C(=O)N[C@@H](Cc1ccc(O)cc1)C(=O)N[C@@H](CCC(N)=O)C(=O)N[C@@H](CO)C(=O)N[C@@H](CC(N)=O)C(=O)N1CCC[C@H]1C(=O)N[C@@H](Cc1ccc(O)cc1)C(=O)O`: the pIC50 in experiment [2] is 5.16; in experiment [4] (setting [7]), 5.77; in experiment [5] (setting [8]), 7.46.
The corresponding values for FTDLRIVY are 7.59, 6.09 and 5.09.
As to RTETPTLQDY, the negative logarithm of the IC50 (pIC50) was 7.96 and 7.40 in experiment [2]; 5.70 in experiment [4].
For the compound ETSSALEIPY, the figures for the pIC50 in experiment [2], in experiment [4] and in experiment [5] were 7.72, 4.92 and 5.15, respectively.
Consider YSDISEYRHY, for which the pIC50 was 8.42 in experiment [2] and 5.87 in experiment [4].
`CC[C@H](C)[C@H](NC(=O)[C@@H](NC(=O)[C@@H]1CCCN1C(=O)[C@H](Cc1c[nH]cn1)NC(=O)[C@H](CO)NC(=O)[C@H](Cc1ccc(O)cc1)NC(=O)[C@@H](N)CC(C)C)[C@@H](C)CC)C(=O)N[C@@H](CC(C)C)C(=O)NCC(=O)N[C@@H](Cc1ccccc1)C(=O)O`: the negative-log IC50 (pIC50) in experiment [2] was 5.50; in experiment [3], 8.27; in experiment [6], 8.59.
In the case of ETRHYNYSLY, the pIC50 is 6.35 in experiment [2], 5.26 in experiment [4] and 7.54 in experiment [5].
For `CC(C)C[C@H](NC(=O)[C@H](CC(=O)O)NC(=O)[C@H](CC(C)C)NC(=O)[C@@H](NC(=O)[C@H](Cc1ccc(O)cc1)NC(=O)[C@H](CCC(=O)O)NC(=O)[C@H](CCCCN)NC(=O)[C@H](CC(C)C)NC(=O)[C@@H](NC(=O)[C@@H]1CCCN1)[C@@H](C)O)C(C)C)C(=O)N[C@@H](Cc1ccc(O)cc1)C(=O)O`, the values for the pIC50 in experiment [2] and in experiment [4] (setting [7]) were 6.37 and 6.09, respectively.
As for YSDIRELRHY, the results for the negative-log IC50 (pIC50) in experiment [2], in experiment [4] and in experiment [5] were 7.85, 5.94 and 6.13, respectively.
The corresponding values for LTDLRLSCVY are 7.35, 5.75 and 6.21.
As for KTDQRSEVY, the pIC50 was 7.08 and 7.39 in experiment [2]; 3.70 in experiment [4]; 5.93 in experiment [5].
Regarding TLEKGPGPGLY, the pIC50 in experiment [2] is 7.89; in experiment [4] (setting [7]), 5.69; in experiment [5] (setting [8]), 7.40.
Take LTDIEITCVY: the pIC50 in experiment [2] is 7.92 and 7.48; in experiment [4] it was 6.27; in experiment [5], 7.10.
Take ELDSALEIPY: the pIC50 in experiment [2] was 7.42; in experiment [4], 4.09; in experiment [5], 4.42.
As for TLGPGPGTGLY, the pIC50 in experiment [2] was 6.46; in experiment [4] (setting [7]), 5.88; in experiment [5] (setting [8]), 8.13.
The corresponding values for `CC[C@H](C)[C@H](NC(=O)[C@H](CCCCN)NC(=O)[C@H](CCC(=O)O)NC(=O)[C@H](CC(C)C)NC(=O)[C@@H](N)[C@@H](C)O)C(=O)N[C@H](C(=O)N[C@@H](CC(N)=O)C(=O)N[C@H](C(=O)N[C@@H](CCC(=O)O)C(=O)N[C@@H](CC(C)C)C(=O)N[C@@H](Cc1ccc(O)cc1)C(=O)O)[C@@H](C)O)[C@@H](C)O` are 7.77, 5.08 and 5.41.
For TLEKLGPGPGY the same measures were 6.57, 5.35 and 5.71.
Turning to YTKVSEFRWY, the pIC50 in experiment [2] was 6.56 and 6.69; in experiment [4], 5.48; in experiment [5], 6.38.
With FTSKVRKYRY, the pIC50 in experiment [2] is 7.19 and 7.43; in experiment [4] it was 5.18; in experiment [5], 7.28.
As for `CC(C)C[C@H](NC(=O)[C@H](CC(=O)O)NC(=O)[C@H](CCC(N)=O)NC(=O)[C@@H](N)[C@@H](C)O)C(=O)N[C@H](C(=O)N[C@@H](CCC(N)=O)C(=O)N[C@@H](CCC(=O)O)C(=O)N[C@@H](CCCCN)C(=O)N[C@@H](Cc1ccc(O)cc1)C(=O)O)C(C)C`, the pIC50 in experiment [2] was 7.24; in experiment [4] it was 4.48; in experiment [5], 5.42.
On to ISDYRHYNY, for which the pIC50 was 7.80 and 7.55 in experiment [2]; 7.35 in experiment [4].
Regarding VSSIFISFY, the values for the pIC50 in experiment [2], in experiment [4] (setting [7]) and in experiment [5] (setting [8]) were 6.84, 5.74 and 7.26, respectively.
As for RTAKQHTCY, the values for the pIC50 in experiment [2], in experiment [4] and in experiment [5] were 5.25, 3.88 and 6.46, respectively.
Turning to ITDIILECVY, the pIC50 was 8.74 in experiment [2], 5.12 in experiment [4] and 6.30 in experiment [5].
For RTDILDLWVY the same measures were 7.07, 4.87 and 6.44.
As for LIENELMNY, the pIC50 is 6.39 in experiment [2] and 5.40 in experiment [4] (setting [7]).
Turning to YSDVRKYRYY, the pIC50 was 7.72 in experiment [2], 6.07 in experiment [4] and 6.10 in experiment [5].
With QTEQATSNYY, the negative-log IC50 (pIC50) in experiment [2] was 7.96; in experiment [4], 5.02; in experiment [5] it was 6.30.
Regarding LSLDGPGPGY, the pIC50 in experiment [2] is 6.58; in experiment [4] (setting [7]), 6.56.
As for `CC[C@H](C)[C@H](NC(=O)[C@H](CC(=O)O)NC(=O)[C@H](CCC(N)=O)NC(=O)[C@@H](N)CCCNC(=N)N)C(=O)N[C@@H](CC(C)C)C(=O)N[C@@H](CC(=O)O)C(=O)N[C@@H](CC(C)C)C(=O)N[C@@H](Cc1c[nH]c2ccccc12)C(=O)N[C@H](C(=O)N[C@@H](Cc1ccc(O)cc1)C(=O)O)C(C)C`, the pIC50 in experiment [2] is 5.05; in experiment [4] (setting [7]), 4.86; in experiment [5] (setting [8]), 7.02.
In the case of YSDVSEFRWY, the results for the pIC50 in experiment [2] and in experiment [4] were 8.41 and 5.73, respectively.
On to EYDHYCYSLY, for which the pIC50 in experiment [2] is 3.96; in experiment [4], 6.10; in experiment [5], 7.11.
For the compound KTRYYDYSVY, the figures for the pIC50 in experiment [2], in experiment [4] and in experiment [5] were 5.53, 4.06 and 9.15, respectively.
For KYDYYDYSVY, the values for the pIC50 in experiment [2], in experiment [4] and in experiment [5] were 3.73, 5.24 and 7.96, respectively.
On to `CC[C@H](C)[C@H](N)C(=O)N[C@@H](CO)C(=O)N[C@@H](CCC(=O)O)C(=O)N[C@@H](Cc1ccc(O)cc1)C(=O)N[C@@H](CCCNC(=N)N)C(=O)N[C@@H](Cc1c[nH]cn1)C(=O)N[C@@H](Cc1ccc(O)cc1)C(=O)N[C@@H](CC(N)=O)C(=O)N[C@@H](Cc1ccc(O)cc1)C(=O)O`, for which the pIC50 in experiment [2] was 7.60; in experiment [3] it was less than 4.63; in experiment [5] (setting [8]) it was 7.49.
QNADKNFLY: the pIC50 is 5.42 in experiment [2], 7.62 in experiment [4] (setting [7]) and 6.18 in experiment [5] (setting [8]).
On to ITKILYQSNPY, for which the pIC50 is less than 5.00 in experiment [2] and 4.19 in experiment [4].
As for FQAAESNERY, the pIC50 is 5.05 in experiment [2], 5.75 in experiment [4] (setting [7]) and 6.43 in experiment [5] (setting [8]).

The pIC50 is −log10 of the IC50, conventionally taken in molar units. Higher therefore signals a low IC50.
